# Assay results reported in the supplement of paper PMC4862054.
# Key:
# Conditions in all cases: incubation time: 72 h
# CAL-148 [1] = experiment: normalised response (% of control), CellTiter-Glo; higher = more viable cells (100 = DMSO, 0 = benzethonium chloride kill control)
# Experimental: (§1)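 DSRT, 72 h incubation, CellTox Green / CellTiter-Glo readout. Signal is normalised to DMSO and benzethonium chloride controls. Value is the normalised response at dose 3.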
# MDA-MB-453 [2] = experiment: as above
# Experimental: as §1
# MDA-MB-468 [3] = experiment: as above
# Experimental: as §1
# BT-474 [4] = experiment: as above
# Experimental: as §1
# MDA-MB-231 [5] = experiment: as above
# Experimental: as §1
# DU-4475 [6] = experiment: as above
# Experimental: as §1
# HCC1599 [7] = experiment: as above
# Experimental: as §1
# MCF-10A [8] = experiment: as above
# Experimental: as §1
# CAL-85-1 [9] = experiment: as above
# Experimental: as §1
# CAL-51 [10] = experiment: as above
# Experimental: as §1
# HDQ-P1 [11] = experiment: as above
# Experimental: as §1
# HCC1143 [12] = experiment: as above
# Experimental: as §1
# SK-BR-3 = experiment: as above
# Experimental: as §1
# Hs578T [13] = experiment: as above
# Experimental: as §1
# HCC1937 [14] = experiment: as above
# Experimental: as §1
# BT-549 [15] = experiment: as above
# Experimental: as §1
# MDA-MB-436 [16] = experiment: as above
# Experimental: as §1
# CAL-120 [17] = experiment: as above
# Experimental: as §1
# MFM-223 [18] = experiment: as above
# Experimental: as §1
# CAL-148 [19] = experiment: normalised response (% of control), CellTox Green; higher = less cell death (100 = DMSO, 0 = benzethonium chloride kill control)
# Procedure, shortened: (§2)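 In 384-well plates holding compound at 5 concentrations in 10-fold steps over a 10,000-fold range specific to each compound, breast cancer cell lines were seeded as 20 µl suspension and incubated 72 h. CellTox Green fluorescence was measured at 485/520 nm, after which CellTiter-Glo luminescence was measured following 10 min at room temperature. Plate signals were normalised to 0.1 % DMSO (100) and a positive kill control (0), and each value is the normalised signal at a single concentration.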
# MDA-MB-453 [20] = experiment: as above
# Procedure, shortened: as §2
# MDA-MB-468 [21] = experiment: as above
# Procedure, shortened: as §2
# BT-474 [22] = experiment: as above
# Procedure, shortened: as §2
# MDA-MB-231 [23] = experiment: as above
# Procedure, shortened: as §2
# DU-4475 [24] = experiment: as above
# Procedure, shortened: as §2
# HCC1599 [25] = experiment: as above
# Procedure, shortened: as §2
# MCF-10A [26] = experiment: as above
# Procedure, shortened: as §2
# CAL-85-1 [27] = experiment: as above
# Procedure, shortened: as §2
# CAL-51 [28] = experiment: as above
# Procedure, shortened: as §2
# HDQ-P1 [29] = experiment: as above
# Procedure, shortened: as §2
# HCC1143 [30] = experiment: as above
# Procedure, shortened: as §2
# Hs578T [31] = experiment: as above
# Procedure, shortened: as §2
# HCC1937 [32] = experiment: as above
# Procedure, shortened: as §2
# BT-549 [33] = experiment: as above
# Procedure, shortened: as §2
# MDA-MB-436 [34] = experiment: as above
# Procedure, shortened: as §2
# CAL-120 [35] = experiment: as above
# Procedure, shortened: as §2
# MFM-223 [36] = experiment: as above
# Procedure, shortened: as §2
compound,measurement,setting,value
CS(=O)(=O)OCCCCOS(C)(=O)=O [Busulfan] (1000 nM),normalised response,CAL-148 [1],107%
same,normalised response,MDA-MB-453 [2],111%
same,normalised response,MDA-MB-468 [3],97.2%
same,normalised response,BT-474 [4],98.9%
same,normalised response,MDA-MB-231 [5],105%
same,normalised response,DU-4475 [6],108%
same,normalised response,HCC1599 [7],98.9%
same,normalised response,MCF-10A [8],108%
same,normalised response,CAL-85-1 [9],104%
same,normalised response,CAL-51 [10],90.4%
same,normalised response,HDQ-P1 [11],103%
same,normalised response,HCC1143 [12],105%
same,normalised response,SK-BR-3,110%
same,normalised response,Hs578T [13],108%
same,normalised response,HCC1937 [14],96.2%
same,normalised response,BT-549 [15],109%
same,normalised response,MDA-MB-436 [16],94.2%
same,normalised response,CAL-120 [17],102%
same,normalised response,MFM-223 [18],106%
same,normalised response,CAL-148 [19],96.1%
same,normalised response,MDA-MB-453 [20],103%
same,normalised response,MDA-MB-468 [21],121%
same,normalised response,BT-474 [22],100%
same,normalised response,MDA-MB-231 [23],104%
same,normalised response,DU-4475 [24],101%
same,normalised response,HCC1599 [25],103%
same,normalised response,MCF-10A [26],59.8%
same,normalised response,CAL-85-1 [27],101%
same,normalised response,CAL-51 [28],109%
same,normalised response,HDQ-P1 [29],83.3%
same,normalised response,HCC1143 [30],97.8%
same,normalised response,Hs578T [31],105%
same,normalised response,HCC1937 [32],107%
same,normalised response,BT-549 [33],96.5%
same,normalised response,MDA-MB-436 [34],90.6%
same,normalised response,CAL-120 [35],97.8%
same,normalised response,MFM-223 [36],102%
C#Cc1cccc(Nc2ncnc3cc(OC)c(OCCCCCCC(=O)NO)cc23)c1 [CUDC-101] (100 nM),normalised response,CAL-148 [1],95.5%
same,normalised response,MDA-MB-453 [2],60.1%
same,normalised response,MDA-MB-468 [3],74.1%
same,normalised response,BT-474 [4],91.8%
same,normalised response,MDA-MB-231 [5],90.9%
same,normalised response,DU-4475 [6],96.3%
same,normalised response,HCC1599 [7],105%
same,normalised response,MCF-10A [8],65.4%
same,normalised response,CAL-85-1 [9],78.5%
same,normalised response,CAL-51 [10],62.1%
same,normalised response,HDQ-P1 [11],84%
same,normalised response,HCC1143 [12],90.9%
same,normalised response,SK-BR-3,84.2%
same,normalised response,Hs578T [13],94.7%
same,normalised response,HCC1937 [14],93.4%
same,normalised response,BT-549 [15],105%
same,normalised response,MDA-MB-436 [16],96.8%
same,normalised response,CAL-120 [17],93.3%
same,normalised response,MFM-223 [18],78.2%
same,normalised response,CAL-148 [19],82.4%
same,normalised response,MDA-MB-453 [20],101%
same,normalised response,MDA-MB-468 [21],106%
same,normalised response,BT-474 [22],97%
same,normalised response,MDA-MB-231 [23],70.3%
same,normalised response,DU-4475 [24],97%
same,normalised response,HCC1599 [25],103%
same,normalised response,MCF-10A [26],101%
same,normalised response,CAL-85-1 [27],93.8%
same,normalised response,CAL-51 [28],82.4%
same,normalised response,HDQ-P1 [29],109%
same,normalised response,HCC1143 [30],111%
same,normalised response,Hs578T [31],73.6%
same,normalised response,HCC1937 [32],89.5%
same,normalised response,BT-549 [33],115%
same,normalised response,CAL-120 [35],84.2%
same,normalised response,MFM-223 [36],103%
